Measurements as given in article PMC5389348 (Scientific Reports, 2017).
Like-named read-outs stand apart in the source and are kept apart here.

Legend:
HTLA cells [1] = system: HTLA cells; parameters: method as in PMID 27560284; conditions: 100 μM; same experimental conditions; cited from earlier work
[2] = parameters: method as in PMID 27560284; conditions: parent compound; cited from earlier work
PDE4B2 = molecular target: T1, PDE4B2 (Homo sapiens, UniProt Q07343); experiment: PDE enzymatic profile; assay type: biochemical; conditions: read-out: GEBR-32a % inhibition, recombinant human PDE expressed in baculovirus
T1 construct: purchased Scottish Biochem (Glasgow, Scotland, UK); host or cells: baculovirus system

PDE2A3 = molecular target: T2, PDE2A3 (Homo sapiens, UniProt O00408); experiment: PDE enzymatic profile; assay type: biochemical; conditions: read-out: GEBR-32a % inhibition, recombinant human PDE expressed in baculovirus, NI = no inhibition
T2 construct: purchased Scottish Biochem (Glasgow, Scotland, UK)

PDE9A1 = molecular target: T3, PDE9A1 (Homo sapiens, UniProt O76083); experiment: PDE enzymatic profile; assay type: biochemical; conditions: read-out: GEBR-32a % inhibition, recombinant human PDE expressed in baculovirus, NI = no inhibition
T3 construct: purchased Scottish Biochem (Glasgow, Scotland, UK)

PDE4A1 = molecular target: T4, PDE4A1 (Homo sapiens, UniProt P27815); experiment: PDE enzymatic profile; assay type: biochemical; conditions: read-out: GEBR-32a % inhibition, recombinant human PDE expressed in baculovirus
T4 construct: purchased Scottish Biochem (Glasgow, Scotland, UK); host or cells: baculovirus system

PDE1B = molecular target: T5, PDE1B (Homo sapiens, UniProt Q01064); experiment: PDE enzymatic profile; assay type: biochemical
T5 construct: purchased Scottish Biochem (Glasgow, Scotland, UK)

PDE8A1 = molecular target: T6, PDE8A1 (Homo sapiens, UniProt O60658); experiment: PDE enzymatic profile; assay type: biochemical
T6 construct: purchased Scottish Biochem (Glasgow, Scotland, UK)

PDE10A1 = molecular target: T7, PDE10A1 (Homo sapiens, UniProt Q9Y233); experiment: PDE enzymatic profile; assay type: biochemical
T7 construct: purchased Scottish Biochem (Glasgow, Scotland, UK)

PDE5A1 = molecular target: T8, PDE5A1 (Homo sapiens, UniProt O76074); experiment: PDE enzymatic profile; assay type: biochemical
T8 construct: purchased Scottish Biochem (Glasgow, Scotland, UK)

WT and Tg2576 mice = experiment: Y-maze continuous alternation task; assay type: in vivo, mouse
Protocol: The apparatus was made of grey Plexiglas with three arms symmetrically placed together at a 120° angle. At the beginning of the trial, each mouse was placed in one of three arms (randomly divided and balanced) and was then allowed to freely explore the apparatus for 6 minutes. The number of entries into a different arm and the order was measured. An entry was only counted if all four paws of the animal were placed completely inside the arm. When a mouse visited all 3 arms consecutively, it made a triad. In between trials, the apparatus was cleaned with a 70% ethanol solution to avoid olfactory cues. […] Of note, there was no statistical difference between testing sessions (day effect; data not shown) and, therefore, both test sessions were pooled. To measure spatial working memory, the percentage of alternations was calculated by taking the number of triads and dividing it through the maximum possible alternations (total entries minus 2) and multiply this by 100. A score of 50% alternations is considered chance level and, therefore, a significant difference from 50% is indicative of functional working memory. Normal distribution of data was evaluated by Kolmogorov–Smirnov and one-way ANOVA was performed to evaluate differences between the conditions. For each condition, one-sample t-test was used for comparison versus the score of 50%.

PDE4B1 = molecular target: T9, PDE4B1 (Homo sapiens, UniProt Q07343); experiment: PDE enzymatic profile; assay type: biochemical; conditions: read-out: GEBR-32a % inhibition, recombinant human PDE expressed in baculovirus
T9 construct: purchased Scottish Biochem (Glasgow, Scotland, UK); host or cells: baculovirus system

PDE4B3 = molecular target: T10, PDE4B3 (Homo sapiens, UniProt Q07343); experiment: PDE enzymatic profile; assay type: biochemical; conditions: read-out: GEBR-32a % inhibition, recombinant human PDE expressed in baculovirus
T10 construct: purchased Scottish Biochem (Glasgow, Scotland, UK); host or cells: baculovirus system

PDE7B = molecular target: T11, PDE7B (Homo sapiens, UniProt Q9NP56); experiment: PDE enzymatic profile; assay type: biochemical
T11 construct: purchased Scottish Biochem (Glasgow, Scotland, UK)

[3] = Pharmacokinetic analysis, plasma and brain; assay type: in vivo; conditions: male, mouse
Protocol: For blood analysis, 25 μL of plasma were transferred into a 1.5 mL Eppendorf tube and were added with 25 μL of methanol and 25 μL of internal standard (500 ng/mL voriconazole), followed by the addition of 100 μL methanol. As for brains, 100 mg of tissue were placed into a plastic tube and added with 500 μL of methanol to facilitate homogenization, which was carried out using a Fluko F6/10 superfine homogenizer for approximately 1 min. […] A 25 μL aliquot of the homogenized samples was transferred into an Eppendorf tube and added with 20 μL of internal standard (500 ng/mL voriconazole) followed by the addition of 100 μL of methanol. […] AUC0-t: the area under the plasma/brain concentration versus time curve from time 0 to the last measurable concentration was calculated by using the linear trapezoidal rule. Cmax: the maximum observed plasma concentration.

aged WT and Tg2576 mice = experiment: Hippocampal long-term potentiation, fEPSP recordings in slices of chronically treated mice; assay type: in vivo, mouse; conditions: chronic 0.03 mg/kg for 23 days
Protocol: Electrophysiological recordings have been carried out as previously described. […] A concentric bipolar platinum-iridium stimulation electrode and a low-resistance glass recording microelectrode filled with saline solution ([…]) were placed in CA1 stratum radiatum to record the extracellular field excitatory postsynaptic potential (fEPSP). Basal synaptic transmission was assayed by plotting the stimulus voltages against slopes of fEPSP.

HTLA cells [4] = experiment: Cytotoxicity, lactate dehydrogenase release; assay type: cell-based, human; conditions: 100 μM, 24 hours
Protocol: (§1) At the end of the incubation period, lactate-dehydrogenase release was measured in conditioned media using the Cytoxicity Detection Kit^PLUS (Roche, Germany) according to manufacturer protocols.

HTLA cells [5] = experiment: cAMP determination in cultured cells; assay type: cell-based, human; conditions: 100 μM
Protocol: The cells used in this study (human neuroblastoma cell line HTLA-230, HTLA) were grown in Roswell Park Memorial Institute medium (RPMI), with 0.1 mM non-essential aminoacids and 10% fetal bovine serum. At the end of treatments, intracellular cAMP was measured with the DetectX® Direct Cyclic AMP Enzyme Immunoassay Kit (Arbor Assay, MI, USA), following the manufacturer’s protocol.
(§2) Results from cells and slices are presented as fold increase and represent mean ± S.E.M. of the number of experiments reported in the figure legend. Normal distribution was evaluated by Kolmogorov–Smirnov test and then data have been analysed by one-way ANOVA followed by Newman-Keuls or Dunnett’s tests, as appropriate.

mice [6] = experiment: Ketamine/xylazine induced α2-adrenoceptor-mediated anaesthesia test (emetic-like effect); assay type: in vivo, mouse; conditions: 0.003–3 mg/kg s.c., adult mice
Protocol: The outcome measurement was the total time the animals were anesthetized, measured from anaesthesia induction to the righting reflex (i.e. when mice were back on all four paws). In order to reduce the number of animals for experimentation and to get sufficient group sizes, the experiments were performed three times with 2 recovery days in between. […] Normal distribution of data was evaluated by Kolmogorov–Smirnov and one-way ANOVA was used to compare all conditions.

PDE4A4 = molecular target: T12, PDE4A4 (Homo sapiens, UniProt P27815); experiment: PDE enzymatic profile; assay type: biochemical; conditions: read-out: GEBR-32a % inhibition, recombinant human PDE expressed in baculovirus
T12 construct: purchased Scottish Biochem (Glasgow, Scotland, UK); host or cells: baculovirus system

PDE7A = molecular target: T13, PDE7A (Homo sapiens, UniProt Q13946); experiment: PDE enzymatic profile; assay type: biochemical
T13 construct: purchased Scottish Biochem (Glasgow, Scotland, UK)

PDE8B1 = molecular target: T14, PDE8B1 (Homo sapiens, UniProt O95263); experiment: PDE enzymatic profile; assay type: biochemical
T14 construct: purchased Scottish Biochem (Glasgow, Scotland, UK)

rat hippocampal slices = experiment: cAMP determination in hippocampal slices; assay type: cell-based; conditions: forskolin 0.1 μM
Protocol: Hippocampal slices (400 μm thick) were obtained from adult Sprague Dawley rats using a McIlwain tissue chopper and pre-incubated in physiological medium[52] […] Finally, slices were left in hot medium (90 °C) for 15 min, sonicated and centrifuged at 10000 g for 15 min. The supernatant was used for cAMP determination, using the same kit as above, and the pellet for protein quantification.
as §2

PDE11A1 = molecular target: T15, PDE11A1 (Homo sapiens, UniProt Q9HCR9); experiment: PDE enzymatic profile; assay type: biochemical; conditions: read-out: GEBR-32a % inhibition, recombinant human PDE expressed in baculovirus, NI = no inhibition
T15 construct: purchased Scottish Biochem (Glasgow, Scotland, UK)

HTLA cells [7] = experiment: Genotoxicity, phosphorylation of histone H2A.X (Western blot); assay type: cell-based, human; conditions: 100 μM, 24 hours
Protocol: as §1
To evaluate genotoxicity, cells were processed for total protein extraction as described previously. Immunoblots were done according to standard methods, using the following antibodies: mouse monoclonal to gamma H2A.X (2F3, phospho S139) and rabbit polyclonal to Histone H2A.X (Abcam, UK); anti-mouse and anti-rabbit secondary antibodies coupled to horseradish peroxidase (GE Healthcare, UK). Proteins were visualized with an enzyme-linked chemiluminescence detection kit according to the manufacturer’s instructions (GE Healthcare). Chemiluminescence was monitored by exposure to films and signals were analyzed under non-saturating condition with an image densitometer (Bio-Rad, CA, USA).

[8] = cited from earlier work
mice [9] = system: mice; parameters: method as in PMID 21649644; conditions: 0.03 and 0.3 mg/kg; same experimental conditions; cited from earlier work
[10] = read-out: GEBR-32a % inhibition
[11] = read-out: GEBR-32a % inhibition, 10 μM, recombinant human PDE expressed in baculovirus
[12] = sc, brain, 10 mg/kg s.c., BALB/c mice
[13] = sc, plasma, 10 mg/kg s.c., BALB/c mice
[14] = Dipyridamole 50 μM, read-out: Comparator % inhibition

T11 sequence (Q9NP56 whole entry): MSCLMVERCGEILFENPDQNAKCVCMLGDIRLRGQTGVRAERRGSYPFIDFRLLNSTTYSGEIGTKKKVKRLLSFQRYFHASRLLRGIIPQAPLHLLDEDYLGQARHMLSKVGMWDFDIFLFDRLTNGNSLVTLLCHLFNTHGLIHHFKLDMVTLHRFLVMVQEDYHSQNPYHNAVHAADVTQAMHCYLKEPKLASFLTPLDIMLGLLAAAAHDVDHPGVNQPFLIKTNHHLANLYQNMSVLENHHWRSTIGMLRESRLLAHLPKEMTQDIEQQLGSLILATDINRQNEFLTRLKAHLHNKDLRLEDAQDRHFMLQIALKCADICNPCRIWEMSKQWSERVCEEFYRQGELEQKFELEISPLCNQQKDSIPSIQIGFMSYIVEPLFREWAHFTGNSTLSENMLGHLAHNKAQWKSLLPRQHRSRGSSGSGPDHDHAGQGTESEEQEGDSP
T5 sequence (Q01064 whole entry): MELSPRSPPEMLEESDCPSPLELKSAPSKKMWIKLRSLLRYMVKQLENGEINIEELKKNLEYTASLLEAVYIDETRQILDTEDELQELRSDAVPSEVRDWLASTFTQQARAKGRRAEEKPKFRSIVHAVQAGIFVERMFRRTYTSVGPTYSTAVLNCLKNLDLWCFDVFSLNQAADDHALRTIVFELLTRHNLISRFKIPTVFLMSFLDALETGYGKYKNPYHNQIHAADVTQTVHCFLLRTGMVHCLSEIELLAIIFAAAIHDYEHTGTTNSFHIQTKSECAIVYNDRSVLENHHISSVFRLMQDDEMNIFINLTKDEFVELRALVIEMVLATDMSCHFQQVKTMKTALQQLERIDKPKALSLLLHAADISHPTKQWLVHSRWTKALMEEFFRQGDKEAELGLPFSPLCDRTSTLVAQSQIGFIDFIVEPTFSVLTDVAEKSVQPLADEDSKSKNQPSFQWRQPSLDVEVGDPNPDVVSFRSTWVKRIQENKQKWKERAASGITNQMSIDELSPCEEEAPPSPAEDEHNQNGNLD
T7 sequence (Q9Y233 1-779 isoform Q9Y233-1): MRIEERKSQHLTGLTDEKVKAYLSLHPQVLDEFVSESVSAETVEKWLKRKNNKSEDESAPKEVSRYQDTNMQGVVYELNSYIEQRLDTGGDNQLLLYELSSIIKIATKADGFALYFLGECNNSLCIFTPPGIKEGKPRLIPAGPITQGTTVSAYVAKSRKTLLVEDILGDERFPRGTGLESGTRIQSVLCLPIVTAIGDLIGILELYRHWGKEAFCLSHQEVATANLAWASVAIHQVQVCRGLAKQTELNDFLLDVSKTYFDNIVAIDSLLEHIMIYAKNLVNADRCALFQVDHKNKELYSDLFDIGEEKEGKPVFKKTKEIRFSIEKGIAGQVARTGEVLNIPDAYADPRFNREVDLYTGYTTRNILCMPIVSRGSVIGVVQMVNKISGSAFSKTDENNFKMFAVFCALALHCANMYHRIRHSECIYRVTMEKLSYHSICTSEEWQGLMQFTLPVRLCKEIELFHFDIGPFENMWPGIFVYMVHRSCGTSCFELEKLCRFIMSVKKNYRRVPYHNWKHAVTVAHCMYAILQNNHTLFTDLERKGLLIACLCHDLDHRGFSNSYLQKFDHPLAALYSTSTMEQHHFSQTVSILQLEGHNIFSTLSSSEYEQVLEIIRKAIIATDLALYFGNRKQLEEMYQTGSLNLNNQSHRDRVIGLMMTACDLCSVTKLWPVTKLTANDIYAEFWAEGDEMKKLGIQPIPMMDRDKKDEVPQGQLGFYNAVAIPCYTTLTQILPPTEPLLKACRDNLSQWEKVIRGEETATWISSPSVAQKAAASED
T13 sequence (Q13946 whole entry): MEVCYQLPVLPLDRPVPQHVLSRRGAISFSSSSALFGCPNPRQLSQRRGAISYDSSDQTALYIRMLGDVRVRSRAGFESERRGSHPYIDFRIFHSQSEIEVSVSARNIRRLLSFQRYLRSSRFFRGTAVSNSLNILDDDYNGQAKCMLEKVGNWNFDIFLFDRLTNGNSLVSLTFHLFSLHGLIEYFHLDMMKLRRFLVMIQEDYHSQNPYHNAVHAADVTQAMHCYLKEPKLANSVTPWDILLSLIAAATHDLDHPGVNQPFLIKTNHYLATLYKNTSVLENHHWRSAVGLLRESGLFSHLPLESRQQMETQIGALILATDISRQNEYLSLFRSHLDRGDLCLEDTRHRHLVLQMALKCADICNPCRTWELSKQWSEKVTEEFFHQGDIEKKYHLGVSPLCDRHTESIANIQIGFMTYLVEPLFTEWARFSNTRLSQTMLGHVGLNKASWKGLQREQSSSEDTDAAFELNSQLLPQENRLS
T14 sequence (O95263 whole entry): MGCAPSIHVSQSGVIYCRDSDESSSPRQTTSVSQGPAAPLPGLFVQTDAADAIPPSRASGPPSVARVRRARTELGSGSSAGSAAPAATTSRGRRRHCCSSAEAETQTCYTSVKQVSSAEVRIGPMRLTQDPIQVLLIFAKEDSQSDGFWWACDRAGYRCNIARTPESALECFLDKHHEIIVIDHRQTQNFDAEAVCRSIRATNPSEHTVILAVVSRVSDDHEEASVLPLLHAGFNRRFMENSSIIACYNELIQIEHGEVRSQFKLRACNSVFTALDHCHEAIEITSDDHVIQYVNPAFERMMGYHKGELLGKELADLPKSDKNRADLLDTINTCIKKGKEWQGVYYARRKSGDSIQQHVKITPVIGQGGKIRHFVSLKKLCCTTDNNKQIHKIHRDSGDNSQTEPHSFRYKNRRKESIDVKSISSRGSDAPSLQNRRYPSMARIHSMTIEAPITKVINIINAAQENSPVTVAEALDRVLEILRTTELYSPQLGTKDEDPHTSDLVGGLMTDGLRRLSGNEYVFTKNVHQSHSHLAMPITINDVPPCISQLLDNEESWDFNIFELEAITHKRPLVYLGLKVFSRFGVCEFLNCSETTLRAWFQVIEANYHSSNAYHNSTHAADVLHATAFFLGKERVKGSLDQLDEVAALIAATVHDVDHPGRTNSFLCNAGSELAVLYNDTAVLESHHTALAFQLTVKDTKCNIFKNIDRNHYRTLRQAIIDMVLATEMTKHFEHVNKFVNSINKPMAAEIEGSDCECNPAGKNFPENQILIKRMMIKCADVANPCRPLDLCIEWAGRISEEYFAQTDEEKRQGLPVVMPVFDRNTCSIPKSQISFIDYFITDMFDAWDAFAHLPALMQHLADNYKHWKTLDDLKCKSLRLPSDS
T6 sequence (O60658 whole entry): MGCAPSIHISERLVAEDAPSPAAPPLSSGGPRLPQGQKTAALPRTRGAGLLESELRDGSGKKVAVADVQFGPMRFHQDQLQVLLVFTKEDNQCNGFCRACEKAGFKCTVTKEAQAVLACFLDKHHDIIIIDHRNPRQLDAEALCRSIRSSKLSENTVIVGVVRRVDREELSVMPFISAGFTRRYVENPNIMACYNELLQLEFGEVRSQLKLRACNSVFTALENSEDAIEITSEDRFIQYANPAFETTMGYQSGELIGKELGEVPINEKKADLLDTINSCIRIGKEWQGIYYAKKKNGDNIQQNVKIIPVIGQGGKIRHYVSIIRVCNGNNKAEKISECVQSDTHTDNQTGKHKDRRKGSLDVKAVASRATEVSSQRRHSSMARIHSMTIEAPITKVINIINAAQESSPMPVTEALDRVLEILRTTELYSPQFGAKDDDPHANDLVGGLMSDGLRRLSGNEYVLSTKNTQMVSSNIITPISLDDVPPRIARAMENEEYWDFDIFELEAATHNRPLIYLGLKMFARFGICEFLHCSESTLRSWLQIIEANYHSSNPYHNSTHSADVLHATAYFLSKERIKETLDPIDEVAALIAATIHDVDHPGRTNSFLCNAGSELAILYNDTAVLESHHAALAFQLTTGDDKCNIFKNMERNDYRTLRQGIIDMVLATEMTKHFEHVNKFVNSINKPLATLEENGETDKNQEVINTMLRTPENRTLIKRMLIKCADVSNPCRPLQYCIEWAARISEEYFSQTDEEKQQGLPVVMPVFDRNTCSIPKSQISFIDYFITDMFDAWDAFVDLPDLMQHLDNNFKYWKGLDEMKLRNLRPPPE
T4 sequence (P27815 1-647 isoform P27815-4): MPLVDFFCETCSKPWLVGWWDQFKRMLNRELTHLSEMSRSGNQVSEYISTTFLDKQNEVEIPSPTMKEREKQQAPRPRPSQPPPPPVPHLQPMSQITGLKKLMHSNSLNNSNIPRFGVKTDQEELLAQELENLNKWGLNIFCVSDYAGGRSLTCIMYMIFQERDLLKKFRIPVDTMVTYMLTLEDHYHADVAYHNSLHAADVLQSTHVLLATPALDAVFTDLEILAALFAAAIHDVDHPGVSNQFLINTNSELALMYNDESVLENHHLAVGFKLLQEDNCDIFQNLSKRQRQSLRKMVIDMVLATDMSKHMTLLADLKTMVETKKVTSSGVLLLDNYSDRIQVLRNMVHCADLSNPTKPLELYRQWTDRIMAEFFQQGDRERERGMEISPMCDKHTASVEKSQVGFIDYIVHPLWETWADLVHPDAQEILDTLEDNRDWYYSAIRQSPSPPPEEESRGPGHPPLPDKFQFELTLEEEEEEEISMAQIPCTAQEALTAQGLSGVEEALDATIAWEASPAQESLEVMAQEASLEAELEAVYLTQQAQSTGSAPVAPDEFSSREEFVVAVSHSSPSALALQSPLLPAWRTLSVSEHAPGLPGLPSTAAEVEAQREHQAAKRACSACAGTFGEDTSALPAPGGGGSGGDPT

## COc1ccc(-c2ccn(CC(O)CN3CCOCC3)n2)cc1OC1CCCC1 (centres unmarked) [compound 8a]
HTLA cells [1]
  increase of the forskolin-induced elevation of cAMP in cultured cells: 4 fold
[2]
  brain/plasma ratio: 0.76

## OC(CN1CCOCC1)Cn1ccc(-c2ccc(OC(F)F)c(OC3CCCC3)c2)n1 (centres unmarked) [GEBR-32a]
PDE4B2
  inhibition at 10 µM: 26.3%
PDE2A3
  inhibition at 10 µM: < 0%
PDE9A1
  inhibition at 10 µM: < 0%
PDE4A1
  inhibition at 10 µM: 41%
PDE1B; [10]
  inhibition at 10 µM: 10.7%
PDE8A1; [10]
  inhibition at 10 µM: < 0%
PDE10A1; [10]
  inhibition at 10 µM: < 0%
PDE5A1; [11]
  inhibition at 10 µM: 4.97%
WT and Tg2576 mice; adult WT mice, administered 30 min before trial, data not shown
  percentage of alternations, Y-maze: not further improved
WT and Tg2576 mice; aged Tg2576 mice, acute 0.0003–0.3 mg/kg s.c. 30 min before trial
  percentage of alternations, Y-maze: not able to induce any improvement
WT and Tg2576 mice; aged Tg2576 mice, chronic 0.03 mg/kg for up to 23 days
  percentage of alternations, Y-maze: alternations significantly higher than 50%
WT and Tg2576 mice; aged WT mice, acute, all doses tested 0.0003–0.3 mg/kg s.c. 30 min before trial
  percentage of alternations, Y-maze: significantly ameliorated the performance
PDE4B1
  inhibition at 10 µM: 41.6%
PDE4B3
  inhibition at 10 µM: 39.4%
PDE7B; [11]
  inhibition at 10 µM: 8.61%
[3]; BALB/c, plasma and brain, subcutaneous, 10 mg/kg, absorption and distribution to the brain
  Tmax: 20 min
[3]; BALB/c, plasma and brain, subcutaneous, 10 mg/kg, elimination, read-out: half-life (converted)
  half-life: ~60 min
[3]; in vivo, sc, 10 mg/kg s.c., BALB/c mice, read-out: AUC0-t Ratio (Brain/Plasma)
  Kp: 2.71
[3]; [12]
  AUC(0-t): 2330 ng·h/mL
  Cmax: 2610 ng/g
  Tmax: 19.8 min
[3]; sc, brain, 10 mg/kg s.c., BALB/c mice, read-out: t1/2 (converted)
  half-life: 57 min
[3]; [13]
  AUC(0-t): 861 ng·h/mL
  Cmax: 993 ng/mL
  Tmax: 19.8 min
[3]; sc, plasma, 10 mg/kg s.c., BALB/c mice, read-out: t1/2 (converted)
  half-life: 57 min
Aged WT and Tg2576 mice; aged Tg2576 mice
  hippocampal LTP (fEPSP): rescue the LTP deficit
Aged WT and Tg2576 mice; aged WT mice
  hippocampal LTP (fEPSP): clear, though not significant, enhancement of LTP
HTLA cells [4]
  cytotoxicity, lactate dehydrogenase release: did not produce any significant effect
HTLA cells [5]; forskolin 1 μM
  increase of the forskolin-induced elevation of cAMP in cultured cells: 12 fold
HTLA cells [5]; without forskolin
  increase of cAMP with respect to controls: 2.5 fold
Mice [6]
  duration of anaesthesia (emetic-like effect): did not significantly influence the duration of anaesthesia
PDE4A4
  inhibition at 10 µM: 11%
PDE7A; read-out: GEBR-32a % inhibition, 10 μM, recombinant human PDE expressed in baculovirus, NI = no inhibition
  inhibition at 10 µM: < 0%
PDE8B1; [11]
  inhibition at 10 µM: 23.5%
Rat hippocampal slices; Rattus norvegicus, 0.1–100 μM, read-out: apparent EC50, increase of forskolin-induced cAMP production
  EC50: 1.8 µM
Rat hippocampal slices; highest concentration tested (100 μM)
  elevation of forskolin-induced cAMP production: 4 fold
PDE11A1
  inhibition at 10 µM: < 0%
HTLA cells [7]
  genotoxicity, phosphorylation of histone H2A.X: did not produce any significant effect

## CCCc1nn(C)c2c(=O)[nH]c(-c3cc(S(=O)(=O)N4CCN(C)CC4)ccc3OCC)nc12 [Sildenafil, reference compound]
PDE1B; Sildenafil 10 μM, read-out: Comparator % inhibition
  inhibition at 10 µM: 74.4%
PDE5A1; read-out: Comparator % inhibition
  inhibition at 0.1 µM: 74.9%

## O=C(Nc1c(Cl)cncc1Cl)c1ccc(OC(F)F)c(OCC2CC2)c1 [roflumilast]
[8]
  brain/plasma ratio: 1

## COc1ccc(C2CNC(=O)C2)cc1OC1CCCC1 (centres unmarked) [Rolipram]
Mice [9]
  duration of anaesthesia (emetic-like effect): significantly shortened anaesthesia time

## Cc1ccc([N+](=O)[O-])cc1S(=O)(=O)N(C)C [BRL-50481, reference compound]
PDE7A; BRL-50481 10 μM
  Comparator % inhibition: 78.6 (BRL-50481 10 μM) %

## COc1ccc(Cc2nccc3cc(OC)c(OC)cc23)cc1OC [Papaverine, reference compound]
PDE10A1; Papaverine 1 μM, read-out: Comparator % inhibition
  inhibition at 1 µM: 90.7%

## OCCN(CCO)c1nc(N2CCCCC2)c2nc(N(CCO)CCO)nc(N3CCCCC3)c2n1 [Dipyridamole, reference compound]
PDE8A1; [14]
  inhibition at 50 µM: 64.4%
PDE7B; [14]
  inhibition at 50 µM: 47.3%
PDE8B1; [14]
  inhibition at 50 µM: 57.4%
